Test systems include A549; ACHN; CCRF-CEM; HCT-116; HCT-15; HOP-62; K562; NCI-H226; NCI-H23; NCI-H522; OVCAR-3; OVCAR-4; RXF 393; SK-MEL-5; U-251; UO-31; DU-145; NCI/ADR-RES; PC-3.
What all share (experiment): inhibition of tumour cell growth, NCI panel, 48 h

Structures are written as SMILES. Where a name gives a salt, the structure may show the parent alone.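 Growth conditions: 96-well plates. Treatment: test compound, 48 hours, 5 concentrations. Analysis: linear interpolation between bracketing concentrations; unreached endpoints set to highest concentration. Here, GI50 denotes the concentration required for 50% inhibition of growth.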 Calls of active or inactive are those of the source. Rule as the data show it: active = GI50 up to about 1.1 µM and inactive = higher.

Take `O=C(CSc1nnc(Cc2ccccc2)o1)Nc1ccccc1`: the GI50 in the experiment on A549 is > 100 µM (inactive); in the experiment on ACHN, > 100 µM (inactive); with CCRF-CEM, > 100 µM (inactive); in the experiment on HCT-116 it was > 100 µM (inactive); in the experiment on HCT-15, more than 100 µM; with HOP-62, > 100 µM (inactive). Besides, the GI50 with K562, in the experiment with NCI-H226, with NCI-H23, in the experiment with NCI-H522, in the experiment with OVCAR-3 and in the experiment with OVCAR-4 was > 100 µM (inactive) in each case. Besides, the GI50 in the experiment on RXF 393, in the experiment with SK-MEL-5, in the experiment with U-251 and in the experiment with UO-31 was > 100 µM (inactive) in each case.

On to `O=C1Cc2ccccc2CCc2ccccc21`, for which the GI50 with A549 was > 100 µM (inactive); in the experiment with ACHN it was > 100 µM (inactive); in the experiment on CCRF-CEM it was > 100 µM (inactive); in the experiment with HCT-116 it was > 100 µM (inactive); with HCT-15, more than 100 µM; in the experiment with HOP-62, > 100 µM (inactive). Moreover, the GI50 was 75.3 µM (inactive) with K562; > 100 µM (inactive) with NCI-H226; 74.6 µM (inactive) in the experiment on NCI-H23; 68.9 µM (inactive) in the experiment on NCI-H522; > 100 µM (inactive) in the experiment with OVCAR-3; > 100 µM (inactive) in the experiment with OVCAR-4. Moreover, the GI50 in the experiment with RXF 393 was > 100 µM (inactive); in the experiment on SK-MEL-5 it was > 100 µM (inactive); in the experiment with U-251 it was > 100 µM (inactive); in the experiment on UO-31 it was 45.4 µM (inactive).

As for `O=C(c1ccccc1)c1ccc(OCCOc2ccc(Nc3ccccc3)cc2)cc1`, the GI50 was 64.3 µM (inactive) in the experiment on A549; 24.3 µM (inactive) with ACHN; > 100 µM (inactive) in the experiment on CCRF-CEM; 69.2 µM (inactive) in the experiment with HCT-116; 74.6 µM in the experiment on HCT-15; 23.9 µM (inactive) with HOP-62. Also, the GI50 in the experiment with K562 is > 100 µM (inactive); in the experiment with NCI-H226, 33.6 µM (inactive); in the experiment on NCI-H23, 46.8 µM (inactive); in the experiment on NCI-H522, 17.8 µM (inactive); in the experiment on OVCAR-3 it was 37.2 µM (inactive); with OVCAR-4 it was 17.7 µM (inactive). Further, the GI50 in the experiment on RXF 393 is 35.2 µM (inactive); with SK-MEL-5, 21.9 µM (inactive); in the experiment on U-251 it was 16.6 µM (inactive); in the experiment on UO-31, > 100 µM (inactive).

With `CC1=C(NC(=O)/C(=N/NC(=S)NN)C2C(=O)CC(C)(C)CC2=O)C(=O)c2ccccc2C1=O`, the GI50 in the experiment on A549 is 9.4 µM (inactive); with ACHN it was 13.3 µM (inactive); in the experiment on CCRF-CEM, 3.56 µM (inactive); in the experiment with HCT-116, 3.97 µM (inactive); in the experiment on HCT-15, 6 µM; in the experiment on HOP-62, 16.1 µM (inactive). The GI50 with K562 was 10.6 µM (inactive); in the experiment with NCI-H226, 14 µM (inactive); with NCI-H23 it was 5.06 µM (inactive); in the experiment on NCI-H522 it was 2.85 µM (inactive); in the experiment with OVCAR-3 it was 2.3 µM (inactive); in the experiment with OVCAR-4, 13.7 µM (inactive). Also, the GI50 with RXF 393 was 17.9 µM (inactive); in the experiment with SK-MEL-5 it was 2.15 µM (inactive); in the experiment with U-251, 3.91 µM (inactive); in the experiment on UO-31, 12.8 µM (inactive).

For the compound `Oc1ccc(-c2c3ccccc3c(-c3ccc(O)cc3)c3ccccc23)cc1`, the GI50 in the experiment with A549 is > 100 µM (inactive); with ACHN it was 89.9 µM (inactive); in the experiment on CCRF-CEM, > 100 µM (inactive); with HCT-116, 87.5 µM (inactive); in the experiment with HCT-15, more than 100 µM; in the experiment on HOP-62 it was > 100 µM (inactive). Further, the GI50 with K562, in the experiment with NCI-H226, with NCI-H23, with NCI-H522, with OVCAR-3 and in the experiment on OVCAR-4 was > 100 µM (inactive) throughout. The GI50 in the experiment on RXF 393, in the experiment on SK-MEL-5, in the experiment with U-251 and in the experiment with UO-31 was > 100 µM (inactive) in each case.

With `CC(=O)CC(N)=O`, the GI50 was > 100 µM (inactive) with A549; > 100 µM (inactive) with ACHN; > 100 µM (inactive) in the experiment on CCRF-CEM; > 100 µM (inactive) in the experiment on HCT-116; more than 100 µM with HCT-15; > 100 µM (inactive) in the experiment with HOP-62. Besides, the GI50 in the experiment on K562, in the experiment with NCI-H226, in the experiment on NCI-H23, in the experiment with NCI-H522, in the experiment with OVCAR-3 and in the experiment with OVCAR-4 was > 100 µM (inactive) in each case. Moreover, the GI50 in the experiment on RXF 393, in the experiment on SK-MEL-5, with U-251 and in the experiment on UO-31 was > 100 µM (inactive) each time.

Consider `CC(C)CN1CC(C)C(=O)NC1=O` (stereo unspecified), for which the GI50 with A549, with ACHN, in the experiment with CCRF-CEM, in the experiment with HOP-62, in the experiment with K562 and in the experiment with NCI-H226 was > 100 µM (inactive) throughout. For the same compound, the GI50 with NCI-H23, in the experiment with NCI-H522, in the experiment on OVCAR-4, in the experiment with RXF 393, in the experiment on SK-MEL-5 and with U-251 was > 100 µM (inactive) each time. In addition, in the experiment on UO-31, the GI50 was > 100 µM (inactive).

Consider `COc1ccc(/C=C2\N=C(SC)N(CN3CCOCC3)C2=O)cc1`, for which the GI50 in the experiment on A549 is 65.3 µM (inactive); in the experiment with ACHN, 43.3 µM (inactive); in the experiment on CCRF-CEM, 21.2 µM (inactive); in the experiment on DU-145 it was 65.9 µM (inactive); in the experiment on HCT-116, 33.1 µM (inactive); in the experiment on HCT-15, 30.7 µM. Further, the GI50 in the experiment on HOP-62 is 69.7 µM (inactive); in the experiment on K562, 39 µM (inactive); in the experiment on NCI-H226, 29.2 µM (inactive); in the experiment on NCI-H23, > 100 µM (inactive); with NCI-H522 it was 82.8 µM (inactive); with NCI/ADR-RES it was 80.9 µM (inactive). Further, the GI50 with OVCAR-3 is 90.6 µM (inactive); in the experiment on OVCAR-4, 18.6 µM (inactive); in the experiment with PC-3, 49.2 µM (inactive); in the experiment with SK-MEL-5, 47.3 µM (inactive); in the experiment with U-251 it was 51.6 µM (inactive); with UO-31, 49.8 µM (inactive).

For `CCC1C(=O)C(O)[C@H]2[C@@H]3C(O)CC4=CC(=O)CC[C@]4(C)[C@H]3CC[C@]12C` (stereo partly specified), the GI50 with A549 is > 50 µM (inactive); in the experiment on ACHN, > 50 µM (inactive); with CCRF-CEM, > 50 µM (inactive); in the experiment on DU-145, > 50 µM (inactive); with HCT-116, > 50 µM (inactive); in the experiment on HCT-15, more than 50 µM. The GI50 with HOP-62, in the experiment on K562, with NCI-H23, in the experiment with NCI-H522, in the experiment with NCI/ADR-RES and in the experiment with OVCAR-3 was > 50 µM (inactive) in each case. The GI50 in the experiment on PC-3, in the experiment on SK-MEL-5, with U-251 and with UO-31 was > 50 µM (inactive) each time.

Take `C(=N\Cc1ccccc1)/c1ccccc1-c1ccccc1/C=N/Cc1ccccc1`: the GI50 with A549 is > 10 µM (inactive); in the experiment on ACHN it was > 8.53 µM (inactive); with CCRF-CEM, 2.65 µM (inactive); in the experiment with DU-145 it was > 10 µM (inactive); in the experiment with HCT-116 it was 2.86 µM (inactive); with HCT-15, 5.47 µM. For the same compound, the GI50 with HOP-62 is > 10 µM (inactive); in the experiment on K562, 3.13 µM (inactive); with NCI-H226, > 10 µM (inactive); in the experiment with NCI-H23, > 8.67 µM (inactive); with NCI-H522, > 10 µM (inactive); in the experiment on NCI/ADR-RES it was > 10 µM (inactive). Also, the GI50 with OVCAR-3 was 4.6 µM (inactive); in the experiment on OVCAR-4 it was > 7.96 µM (inactive); in the experiment with PC-3, > 10 µM (inactive); in the experiment on RXF 393, > 10 µM (inactive); in the experiment with SK-MEL-5, > 7.03 µM (inactive); with U-251, 6.5 µM (inactive). For the same compound, in the experiment on UO-31, the GI50 is > 10 µM (inactive).

Consider `CCOC(=O)Cc1csc(N/C=C2/C(=O)Oc3ccccc3C2=O)n1`, for which the GI50 with A549 is 34.2 µM (inactive); with ACHN, 12 µM (inactive); with CCRF-CEM it was 26.6 µM (inactive); in the experiment on HCT-116 it was 27.6 µM (inactive); with HCT-15, 24.2 µM; in the experiment on HOP-62, 20.9 µM (inactive). Moreover, the GI50 in the experiment on NCI-H226 is 22.6 µM (inactive); in the experiment with NCI-H23, 22.8 µM (inactive); in the experiment with NCI-H522, 13.5 µM (inactive); in the experiment with NCI/ADR-RES, 17.7 µM (inactive); in the experiment with OVCAR-3, 25.9 µM (inactive); in the experiment with OVCAR-4, 31.7 µM (inactive). Besides, the GI50 in the experiment with PC-3 is 32.2 µM (inactive); in the experiment on RXF 393, 14.7 µM (inactive); with SK-MEL-5 it was 17.3 µM (inactive); with U-251, 20 µM (inactive); in the experiment with UO-31, 14.9 µM (inactive).

Regarding `NCCCNCCCCNCCCN` [SPERMINE TETRAHYDROCHLORIDE], the GI50 is > 100 µM (inactive) in the experiment on A549; 4.12 µM (inactive) in the experiment with ACHN; 3.67 µM (inactive) in the experiment with CCRF-CEM; 10.6 µM (inactive) in the experiment on DU-145; 2.73 µM (inactive) with HCT-116; 2.67 µM with HCT-15. The GI50 in the experiment on HOP-62 was > 100 µM (inactive); in the experiment with K562 it was 2.33 µM (inactive); with NCI-H226, > 100 µM (inactive); in the experiment with NCI-H23, 67 µM (inactive); in the experiment on NCI-H522, 0.374 µM (active); in the experiment with NCI/ADR-RES, 44.6 µM (inactive). Also, the GI50 in the experiment with PC-3 is > 100 µM (inactive); in the experiment with RXF 393 it was 14.1 µM (inactive); with SK-MEL-5, > 57.9 µM (inactive); with U-251, > 42 µM (inactive); in the experiment with UO-31 it was 2.23 µM (inactive).

The values above are taken from ChEMBL document CHEMBL1201862, “PubChem BioAssay data set” (2004).
